According to ChEMBL document CHEMBL1201862, “PubChem BioAssay data set” (2004):
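How tested: cells in 96-well plates exposed to compound for 48 hours at five concentrations. Abbreviation: GI50, concentration required for 50% inhibition of growth.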 The source made the active and inactive calls. No stated cut-off is given here; in the data, active = GI50 up to about 1.1 µM and inactive = higher.

What was measured:
Assay in all cases: NCI anticancer screen, dose series, 48 h
ACHN = test system: ACHN
LOX IMVI = test system: LOX IMVI
HT-29 = test system: HT-29
CCRF-CEM = test system: CCRF-CEM
HCC 2998 = test system: HCC 2998
TK-10 = test system: TK-10
OVCAR-3 = test system: OVCAR-3
SK-MEL-5 = test system: SK-MEL-5
M19-MEL = test system: M19-MEL
LXFL 529 = test system: LXFL 529
SK-MEL-2 = test system: SK-MEL-2
SK-MEL-28 = test system: SK-MEL-28
K562 = test system: K562
OVCAR-4 = test system: OVCAR-4
SN12C = test system: SN12C
HL-60 = test system: HL-60
786-0 = test system: 786-0
RXF 631 = test system: RXF 631
HOP-92 = test system: HOP-92
COLO 205 = test system: COLO 205
HOP-62 = test system: HOP-62
RXF 393 = test system: RXF 393
HCT-116 = test system: HCT-116
RPMI-8226 = test system: RPMI-8226
SF-295 = test system: SF-295
SF-268 = test system: SF-268
U-251 = test system: U-251
IGROV-1 = test system: IGROV-1
SF-539 = test system: SF-539
KM-20L2 = test system: KM-20L2
HCT-15 = test system: HCT-15
MOLT-4 = test system: MOLT-4
UO-31 = test system: UO-31
NCI-H226 = test system: NCI-H226
XF498 = test system: XF498
UACC-62 = test system: UACC-62
NCI-H23 = test system: NCI-H23
DLD-1 = test system: DLD-1
DMS-114 = test system: DMS-114
SK-OV-3 = test system: SK-OV-3
A498 = test system: A498
NCI-H460 = test system: NCI-H460
KM12 = test system: KM12
DMS-273 = test system: DMS-273
SR = test system: SR
OVCAR-5 = test system: OVCAR-5
SNB-75 = test system: SNB-75
SNB-78 = test system: SNB-78
EKVX = test system: EKVX
M14 = test system: M14
A549 = test system: A549
SW-620 = test system: SW-620
UACC-257 = test system: UACC-257
Malme-3M = test system: Malme-3M
OVCAR-8 = test system: OVCAR-8
HOP-18 = test system: HOP-18
CAKI-1 = test system: CAKI-1
SNB-19 = test system: SNB-19
NCI-H522 = test system: NCI-H522

`C/C(=N\NC(N)=S)c1ccc(C)c(C)c1` was tested, and the GI50 (ACHN) was 59.2 µM (inactive), the GI50 (LOX IMVI) was > 100 µM (inactive) and the GI50 (HT-29) was 19.4 µM (inactive). The GI50 (CCRF-CEM) was 28.1 µM (inactive), the GI50 (HCC 2998) was 51.6 µM (inactive) and the GI50 (TK-10) was 53.5 µM (inactive). For the same compound, the GI50 (OVCAR-3) was 22.8 µM (inactive), the GI50 (SK-MEL-5) was 69.2 µM (inactive) and the GI50 (M19-MEL) was 35.7 µM (inactive). The GI50 (LXFL 529) was 19.4 µM (inactive), the GI50 (SK-MEL-2) was 45 µM (inactive) and the GI50 (SK-MEL-28) was > 100 µM (inactive). The GI50 (K562) was 36.6 µM (inactive), the GI50 (OVCAR-4) was 23.9 µM (inactive) and the GI50 (SN12C) was 49.9 µM (inactive). The GI50 (HL-60) was 15.1 µM (inactive), the GI50 (786-0) was 44.6 µM (inactive) and the GI50 (RXF 631) was 75.3 µM (inactive). For the same compound, the GI50 (HOP-92) was 93.3 µM (inactive), the GI50 (COLO 205) was 26.9 µM (inactive) and the GI50 (HOP-62) was > 100 µM (inactive). The GI50 (RXF 393) was 23 µM (inactive), the GI50 (HCT-116) was > 100 µM (inactive) and the GI50 (RPMI-8226) was 34.5 µM (inactive). For the same compound, the GI50 (SF-295) was 48.8 µM (inactive), the GI50 (SF-268) was > 100 µM (inactive) and the GI50 (U-251) was 88.9 µM (inactive). The GI50 (IGROV-1) was 25.4 µM (inactive), the GI50 (SF-539) was 19.9 µM (inactive) and the GI50 (KM-20L2) was 44.7 µM (inactive). The GI50 (HCT-15) was 58.5 µM, the GI50 (MOLT-4) was 15.8 µM (inactive) and the GI50 (UO-31) was 52.1 µM (inactive). The GI50 (NCI-H226) was 51.2 µM (inactive), the GI50 (XF498) was 19.4 µM (inactive) and the GI50 (UACC-62) was 28.4 µM (inactive). For the same compound, the GI50 (NCI-H23) was 85.7 µM (inactive), the GI50 (DLD-1) was 30.9 µM (inactive) and the GI50 (DMS-114) was 16.6 µM (inactive). The GI50 (SK-OV-3) was 75.7 µM (inactive), the GI50 (A498) was 66.7 µM (inactive) and the GI50 (NCI-H460) was 59.3 µM (inactive). For the same compound, the GI50 (KM12) was 44.5 µM (inactive), the GI50 (DMS-273) was > 100 µM (inactive) and the GI50 (SR) was 68.9 µM (inactive). For the same compound, the GI50 (OVCAR-5) was 29.1 µM (inactive), the GI50 (SNB-75) was 40.3 µM (inactive) and the GI50 (SNB-78) was > 100 µM (inactive). For the same compound, the GI50 (EKVX) was 3.31 µM (inactive), the GI50 (M14) was 41.7 µM (inactive) and the GI50 (A549) was 65.8 µM (inactive). The GI50 (SW-620) was 52.8 µM (inactive), the GI50 (UACC-257) was 44.2 µM (inactive) and the GI50 (Malme-3M) was 33.3 µM (inactive). For the same compound, the GI50 (OVCAR-8) was 66.2 µM (inactive), the GI50 (HOP-18) was 30.6 µM (inactive) and the GI50 (CAKI-1) was 92.5 µM (inactive).

`CCCCCCCCCCCCCC(=O)NCO` was tested, and the GI50 (ACHN) was > 100 µM (inactive), the GI50 (LOX IMVI) was > 100 µM (inactive) and the GI50 (HT-29) was > 100 µM (inactive). For the same compound, the GI50 (CCRF-CEM) was > 100 µM (inactive), the GI50 (HCC 2998) was > 100 µM (inactive) and the GI50 (TK-10) was > 100 µM (inactive). For the same compound, the GI50 (OVCAR-3) was > 100 µM (inactive), the GI50 (SK-MEL-5) was > 100 µM (inactive) and the GI50 (M19-MEL) was > 100 µM (inactive). The GI50 (LXFL 529) was > 100 µM (inactive), the GI50 (SK-MEL-2) was > 100 µM (inactive) and the GI50 (SK-MEL-28) was > 100 µM (inactive). The GI50 (OVCAR-4) was > 100 µM (inactive), the GI50 (SN12C) was > 100 µM (inactive) and the GI50 (HL-60) was > 100 µM (inactive). For the same compound, the GI50 (SNB-19) was > 100 µM (inactive), the GI50 (786-0) was > 100 µM (inactive) and the GI50 (RXF 631) was > 100 µM (inactive). The GI50 (HOP-92) was > 100 µM (inactive), the GI50 (COLO 205) was > 100 µM (inactive) and the GI50 (HOP-62) was > 100 µM (inactive). The GI50 (NCI-H522) was 86.3 µM (inactive), the GI50 (RXF 393) was > 100 µM (inactive) and the GI50 (HCT-116) was > 100 µM (inactive). The GI50 (RPMI-8226) was > 100 µM (inactive), the GI50 (SF-295) was > 100 µM (inactive) and the GI50 (SF-268) was > 100 µM (inactive). The GI50 (U-251) was > 100 µM (inactive), the GI50 (IGROV-1) was > 100 µM (inactive) and the GI50 (SF-539) was > 100 µM (inactive). The GI50 (KM-20L2) was > 100 µM (inactive), the GI50 (HCT-15) was over 100 µM and the GI50 (UO-31) was 99.3 µM (inactive). The GI50 (NCI-H226) was > 100 µM (inactive), the GI50 (XF498) was > 100 µM (inactive) and the GI50 (UACC-62) was > 100 µM (inactive). For the same compound, the GI50 (NCI-H23) was > 100 µM (inactive), the GI50 (DLD-1) was > 100 µM (inactive) and the GI50 (DMS-114) was > 100 µM (inactive). For the same compound, the GI50 (SK-OV-3) was > 100 µM (inactive), the GI50 (A498) was > 100 µM (inactive) and the GI50 (NCI-H460) was > 100 µM (inactive). For the same compound, the GI50 (KM12) was > 100 µM (inactive), the GI50 (OVCAR-5) was > 100 µM (inactive) and the GI50 (SNB-75) was > 100 µM (inactive). The GI50 (SNB-78) was > 100 µM (inactive), the GI50 (EKVX) was > 100 µM (inactive) and the GI50 (M14) was > 100 µM (inactive). The GI50 (A549) was > 100 µM (inactive), the GI50 (SW-620) was > 100 µM (inactive) and the GI50 (UACC-257) was > 100 µM (inactive). The GI50 (Malme-3M) was > 100 µM (inactive), the GI50 (OVCAR-8) was > 100 µM (inactive) and the GI50 (HOP-18) was > 100 µM (inactive).
